This passage reports IC50, EC50 and Activity results from ChEMBL document CHEMBL4265996, “Genetically-encoded fragment-based discovery of glycopeptide ligands for DC-SIGN” (Bioorg Med Chem, 2018).

The target of assay [1] is T1, CD209 antigen (Homo sapiens, UniProt Q9NNX6).
T1 sequence (Q9NNX6 whole entry): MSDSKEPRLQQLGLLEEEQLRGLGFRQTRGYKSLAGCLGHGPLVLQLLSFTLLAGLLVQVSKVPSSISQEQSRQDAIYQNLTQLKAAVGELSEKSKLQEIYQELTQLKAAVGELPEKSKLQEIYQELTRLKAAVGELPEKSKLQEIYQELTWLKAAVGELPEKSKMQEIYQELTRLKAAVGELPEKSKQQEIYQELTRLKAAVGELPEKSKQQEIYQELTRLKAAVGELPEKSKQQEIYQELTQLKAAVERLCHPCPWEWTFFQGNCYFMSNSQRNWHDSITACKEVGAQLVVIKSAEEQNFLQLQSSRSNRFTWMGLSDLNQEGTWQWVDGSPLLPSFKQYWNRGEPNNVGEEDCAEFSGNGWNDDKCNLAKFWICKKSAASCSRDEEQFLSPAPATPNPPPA
Description: Inhibition of binding of trimannoside containing horseradish peroxidase to DC-SIGN carbohydrate binding domain (unknown origin) expressed in Escherichia coli preincubated for 1 hr followed by TMB substrate addition measured after 30 mins by ELISA. Background: In an ELISA, binding on a coated surface is turned into a signal by an enzyme label.

Assay [2] addresses T1, CD209 antigen. Description: Binding affinity to DC-SIGN extracellular domain (unknown origin) expressed in Escherichia coli after 1 hr by ELISA.
Assay [3] deals with T2, CD209 antigen (Homo sapiens) (UniProt Q9NNX6).
T2 sequence (whole entry): T1 sequence (Q9NNX6 whole entry)
As to the kind of experiment: Binding affinity to recombinant human DC-SIGN expressed in rat-6 fibroblast preincubated with Cy5 conjugated compound for 2 hrs followed by washing and measured by flow cytometric analysis. A general note: Flow cytometry measures light scatter and fluorescence of single cells or particles in a stream.

Assay [4] in a line: Binding affinity to ConA […] after 1 hr by ELISA.
The target in assay [5] is T2, CD209 antigen (Homo sapiens). As to the kind of experiment: Binding affinity to recombinant human DC-SIGN expressed in human Raji cells preincubated with Cy5 conjugated compound for 2 hrs followed by washing and measured by flow cytometric analysis. The format is cell-based.
For assay [6], the target named is C-type lectin domain family 4 member K (Homo sapiens) (UniProt Q9UJ71). Description: Binding affinity to human langerin expressed in human Raji cells preincubated with Cy5 conjugated compound for 2 hrs followed by washing and measured by flow cytometric analysis. It is filed as cell-based.

Activity calls are given as the source filed them. The calls are words filed in the database; no cut-off is given here. Where a SMILES comes first, the peptide text is derived from it. The star is where a group is joined. X1 = O=C(/C=N/O[C@H]1O[C@H](CO)[C@@H](O)[C@H](O)[C@@H]1O)*; X2 = O=C(/C=N/O[C@H]1O[C@H](CO)[C@H](O)[C@H](O)[C@H]1O)*

Chain of C-type lectin domain family 4 member K (Homo sapiens) (Q9UJ71 whole entry, the tested form may be a part): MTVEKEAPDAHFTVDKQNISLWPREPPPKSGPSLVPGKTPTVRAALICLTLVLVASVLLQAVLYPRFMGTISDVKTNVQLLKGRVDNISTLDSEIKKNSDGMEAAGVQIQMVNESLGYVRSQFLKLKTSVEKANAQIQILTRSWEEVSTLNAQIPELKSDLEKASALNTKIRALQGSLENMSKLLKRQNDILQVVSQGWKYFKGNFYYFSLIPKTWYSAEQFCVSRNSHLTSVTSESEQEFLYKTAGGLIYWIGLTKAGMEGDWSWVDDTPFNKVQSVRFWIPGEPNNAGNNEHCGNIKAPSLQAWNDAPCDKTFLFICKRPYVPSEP

As for `OC[C@H]1O[C@H](O)[C@@H](O)[C@@H](O)[C@@H]1O`, the IC50 (usually the concentration at which inhibition is half-maximal) at CD209 antigen [1] worked out at 6400 µM.
`[N-]=[N+]=NCCCCCCO[C@H]1O[C@H](CO[C@H]2O[C@H](CO)[C@@H](O)[C@H](O)[C@@H]2O)[C@@H](O)[C@H](O[C@H]2O[C@H](CO)[C@@H](O)[C@H](O)[C@@H]2O)[C@@H]1O` came in with an IC50 at CD209 antigen [1] of 1400 µM.
For `CSCC[C@H](NC(=O)/C=N/O[C@H]1O[C@H](CO)[C@@H](O)[C@H](O)[C@@H]1O)C(=O)N1CCC[C@H]1C(=O)N[C@@H](C)C(=O)N[C@@H](Cc1c[nH]c2ccccc12)C(=O)N[C@@H](CCCNC(=N)N)C(=O)N[C@@H](Cc1cnc[nH]1)C(=O)N[C@@H](C)C(N)=O` (X1-MPAWRHA-NH2), the EC50 at CD209 antigen [2] is 4 ×10⁸ PFU; in assay [4], greater than 1 ×10¹¹ PFU. The result in assay [3] and in assay [5] was Active. Besides, in assay [6], the outcome was inactive.
Regarding `CC(C)[C@H](NC(=O)/C=N/O[C@H]1O[C@H](CO)[C@@H](O)[C@H](O)[C@@H]1O)C(=O)N[C@@H](CCC(=O)O)C(=O)N[C@@H](CCCCN)C(=O)N[C@@H](CC(N)=O)C(=O)N[C@@H](CC(=O)O)C(=O)N[C@@H](CCC(N)=O)C(=O)N[C@@H](CCCCN)C(=O)N[C@H](C(=O)N[C@@H](Cc1ccc(O)cc1)C(=O)N[C@@H](Cc1cnc[nH]1)C(=O)N[C@@H](C)C(N)=O)[C@@H](C)O` (X1-VEKNDQKTYHA-NH2), the EC50 on CD209 antigen [2] is reported as 2.6 ×10¹¹ PFU; in assay [4] it was greater than 1 ×10¹¹ PFU. For the same compound, the result in assay [3] was inactive.
In turn, `CSCC[C@H](NC(=O)/C=N/O[C@H]1O[C@H](CO)[C@H](O)[C@H](O)[C@H]1O)C(=O)N1CCC[C@H]1C(=O)N[C@@H](C)C(=O)N[C@@H](Cc1c[nH]c2ccccc12)C(=O)N[C@@H](CCCNC(=N)N)C(=O)N[C@@H](Cc1cnc[nH]1)C(=O)N[C@@H](C)C(N)=O` (X2-MPAWRHA-NH2) gave an EC50 on CD209 antigen [2] of 3.7 ×10¹⁰ PFU.
On CD209 antigen [2], `CC(C)[C@H](NC(=O)/C=N/O[C@H]1O[C@H](CO)[C@H](O)[C@H](O)[C@H]1O)C(=O)N[C@@H](CCC(=O)O)C(=O)N[C@@H](CCCCN)C(=O)N[C@@H](CC(N)=O)C(=O)N[C@@H](CC(=O)O)C(=O)N[C@@H](CCC(N)=O)C(=O)N[C@@H](CCCCN)C(=O)N[C@H](C(=O)N[C@@H](Cc1ccc(O)cc1)C(=O)N[C@@H](Cc1cnc[nH]1)C(=O)N[C@@H](C)C(N)=O)[C@@H](C)O` (X2-VEKNDQKTYHA-NH2) gave an EC50 of 2 ×10¹¹ PFU.
`CC[C@H](C)[C@H](NC(=O)[C@H](CO)NC(=O)[C@H](CO)NC(=O)/C=N/O[C@H]1O[C@H](CO)[C@@H](O)[C@H](O)[C@@H]1O)C(=O)N[C@H](C(=O)N[C@@H](Cc1cnc[nH]1)C(=O)N[C@@H](C)C(=O)N1CCC[C@H]1C(=O)N[C@@H](CO)C(N)=O)[C@@H](C)O` (stereo in doubt): the EC50 is on record as 2.8 ×10⁹ PFU at CD209 antigen [2] and greater than 1 ×10¹¹ PFU in assay [4].
`CC(C)C[C@H](NC(=O)[C@H](CC(=O)O)NC(=O)[C@H](Cc1ccc(O)cc1)NC(=O)[C@H](Cc1c[nH]c2ccccc12)NC(=O)/C=N/OCCO[C@H]1O[C@H](CO)[C@@H](O)[C@H](O)[C@@H]1O)C(=O)N[C@@H](Cc1ccc(O)cc1)C(=O)N[C@@H](Cc1cnc[nH]1)C(N)=O` (stereo in doubt) registered an EC50 in assay [4] of 2.9 ×10⁹ PFU.
At CD209 antigen [1], `CC[C@H](C)[C@H](NC(=O)[C@H](CO)NC(=O)/C=N/O[C@H]1O[C@H](CO)[C@@H](O)[C@H](O)[C@@H]1O)C(=O)N[C@H](C(=O)N[C@@H](Cc1cnc[nH]1)C(=O)N[C@@H](C)C(=O)N1CCC[C@H]1C(=O)N[C@@H](CO)C(N)=O)[C@@H](C)O` (stereo in doubt) returned an IC50 of 450 µM.
